This is an account of results in patent US20230416265A1, “COMPOUNDS FOR THE DETECTION OF HEME OXYGENASE 1 (HO-1), AND METHODS AND USES INVOLVING THE SAME” (IMPERIAL COLLEGE INNOVATIONS LIMITED, priority 2020, published 2023).

“And” between values parts separate entries of the source, which are not always exact repeats. Equal entries are not always repeated.

Series [1] can be described thus: Photophysical studies in PBS buffer pH 7.4. In kind it is physicochemical. To be noted: for E [%] (FRET efficiency): PBS buffer pH 7.4, 20 μM, 298 K; for Ø514 nm [%] (quantum yield): PBS buffer pH 7.4, 298 K, ± 20%, standard H2TPP in toluene (Ø514 nm = 0.11). How it is done: (§1) UV-Visible absorption spectra were measured using an Agilent Technologies Cary 60 Spectrophotometer operating with VVinUV software. The sample was held in a quartz cuvette with a path length of 1 cm. Absorption spectra were recorded against a baseline of pure solvent in an optically matched cuvette with a scan rate of 600 nm/min and a data interval of 1.0 nm. Emission and excitation spectra were acquired on an Agilent Technologies Carry Eclipse Fluorescence Spectrophotometer, in quartz cuvettes with a path length of 1 cm. Emission and excitation spectra were collected with a scan rate of 120.0 nm/min, a delay interval of 1.0 nm and band-passes of 5 nm.
Measurements were recorded in aqueous solutions of PBS buffer at pH 7.4 in order to mimic physiological conditions.
(§2) In the examples highlighted above, the sample concentration was […] in PBS buffer and 10 pM in chloroform. All measurements were performed at 298 K.

Series [2] is described as follows: Photophysical studies in chloroform. In kind it is physicochemical. To be noted: 298 K; for E [%] (FRET efficiency) / Emission λmax [nm]: λex = 320 nm; for Ø514 nm [%] (quantum yield): ± 20%, standard H2TPP in toluene (Ø514 nm = 0.11). How it is done: as §1, with “5 nm. […]” for “5 nm.”
as §2

Series [3] is described as follows: Photophysical studies in PBS buffer pH 7.4. In kind it is physicochemical. To be noted: PBS buffer pH 7.4, 20 μM, λex = 320 nm, 298 K.
A further series deals with T1, HO-1 (Homo sapiens, UniProt P09601).
T1 construct: made in house; host or cells: E. coli (lysate)
T1 sequence (P09601 1-288): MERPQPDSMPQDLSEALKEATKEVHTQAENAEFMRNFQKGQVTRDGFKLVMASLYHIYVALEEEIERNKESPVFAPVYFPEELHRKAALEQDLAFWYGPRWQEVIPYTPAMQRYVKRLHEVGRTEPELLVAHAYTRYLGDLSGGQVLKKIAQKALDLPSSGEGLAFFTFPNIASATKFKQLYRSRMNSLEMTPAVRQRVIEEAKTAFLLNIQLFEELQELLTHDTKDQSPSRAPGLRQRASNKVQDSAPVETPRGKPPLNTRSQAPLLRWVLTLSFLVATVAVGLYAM
Description: Control experiment: quenching of coumarin 1i fluorescence on addition of HO-1 in E. coli lysates. Type of series: biochemical. To be noted: λex = 320 nm.

Turning to “Iron(11) dimethyl 3,3′-(3,7,8,12,13,17-hexamethyl-10-(4-(2-((4-methyl-2-oxo-2H-chromen-7-yl)oxy)ethoxy) phenyl)porp-hyrin-2,18-diyl)dipropionate [Compound 1h]”, in series [1] (PBS buffer and chloroform, λex = 320 nm), the “porphyrin emission following Fe2+ complexation” value is “completely quenched”. For the same compound, the “E [%] (FRET efficiency)” value in series [1] (λex = 320 nm) stood at 99.2%; in series [2], 98.7%. Besides, the “Emission λmax [nm]” value in series [2] is 385^[a], [b] nm; in series [3], 387 ^[b], [c] nm.
Regarding `COC(=O)CCC1=C(C)c2cc3[nH]c(c(C)c3C)c(-c3ccc(OCCOc4ccc5c(C)cc(=O)oc5c4)cc3)c3nc(cc4[nH]c(cc1n2)c(CCC(=O)OC)c4C)C(C)=C3C` [Compound 1g], the results for the “E [%] (FRET efficiency)” value in series [1] (λex = 320 nm) and in series [2] were 95.1% and 99.7%, respectively. The figures for the “Ø514 nm [%] (quantum yield)” value in series [1] and in series [2] were 0.5% and 5.2%, respectively. Further, the “Emission λmax [nm]” value in series [2] was 385 nm and 629 nm and 695 nm; in series [3], 387 nm.
In the case of `Cc1cc(=O)oc2cc(OCCOc3ccc(-c4c5nc(c(-c6ccccc6)c6ccc([nH]6)c(-c6ccccc6)c6nc(c(-c7ccccc7)c7ccc4[nH]7)C=C6)C=C5)cc3)ccc12` [Compound C3g, reference compound], the “E [%] (FRET efficiency)” value was 96.8% in series [1] (λex = 320 nm) and 96.6% in series [2]. Besides, the “Ø514 nm [%] (quantum yield)” value in series [1] worked out at 2.0%; in series [2] it was 17.4%. The “Emission λmax [nm]” value in series [2] was 379 nm and 654 nm and 719 nm; in series [3] it was 383 nm.
As to `Cc1cc(=O)oc2cc(OCCOc3ccc(C(=O)O)cc3)ccc12` [Compound 1i, 4-(2-((4-Methyl-2-oxo-2H-chromen-7-yl)oxy)ethoxy)benzoic acid], the “decrease in the emission intensity at 384 nm following addition of HO-1” value on HO-1 was determined as 2.3 fold. Moreover, the “Emission λmax [nm]” value in series [2] came out at 381 nm; in series [3], 384 nm.
For the compound `Cc1cc(=O)oc2cc(OCCBr)ccc12` [Compound 1f], the “Emission λmax [nm]” value in series [2] was 382 nm; in series [3], 384 nm and 383 ^[b] nm.
